Three molecules from US20050159596A1, “Cyclic compounds and their use as complex ligands” (Basf Aktiengesellschaft, priority 2002, published 2005) can be followed below.

Data set [1] is described as follows: Solubility in organic solvents. The format is physicochemical. To be noted: for solubility in organic solvents (in words): all organic solvents; for solubility (in words): compared with methanol, ethanol and acetonitrile; for solubility: organic solvent or mixture.

Take `c1cc2c3oc(nc3c1)-c1cccc3nc(oc13)-c1cccc3nc(oc13)-c1cccc3nc-2oc13` [Compound 5, Cyclo-2,7′:2′,7″:2′″,7′″:2′″,7-quaterbenzoxazole]: the “solubility in organic solvents (in words)” value in data set [1] is given as “very limited solubility”.
Regarding `c1cc2c3[nH]c(nc3c1)-c1cccc3nc([nH]c13)-c1cccc3nc([nH]c13)-c1cccc3nc-2[nH]c13` [Compound 8, Cyclo-2,4′:2′,7″:2″4′″:2′″,7-quaterbenzimidazole], the “solubility in organic solvents (in words)” value in data set [1] is “even lower solubility in organic solvents than compound (5)”.
A word on the melting point: it is the temperature, or range, at which the solid turns liquid. As usually defined, the solubility is how much of the substance goes into solution per volume. The molecule `c1cc(-c2cccc3nc(-c4nc5cccc(-c6cccc7ncoc67)c5o4)oc23)c2ocnc2c1` [Compound 13, 7,7′:2′,2″:7′″,7′″-Quaterbenzoxazole] returned a melting point of 358 to 362 °C. Further, the “solubility (in words)” value in data set [1] (in chloroform) was “improved”. The “solubility (in words)” value in data set [1] (in dimethylformide) is recorded as “improved”. For the same molecule, the solubility in data set [1] (in acetonitrile) is less than 1 µM. Also, the solubility in data set [1] (in ethanol) was less than 1 µM. Moreover, the solubility in data set [1] (in methanol) was less than 1 µM.
